Structures are written as SMILES. “Also recorded” adds a separate entry of the source. Bounds are passed on as bounds.

For one test, the target named is T1, DNA gyrase (Escherichia coli, UniProt P0AES4+P0AES6).
T1 construct: His6 (N); made in house; host or cells: Escherichia coli Rosetta (DE3)
T1 sequence (P0AES4 whole entry, one chain of several): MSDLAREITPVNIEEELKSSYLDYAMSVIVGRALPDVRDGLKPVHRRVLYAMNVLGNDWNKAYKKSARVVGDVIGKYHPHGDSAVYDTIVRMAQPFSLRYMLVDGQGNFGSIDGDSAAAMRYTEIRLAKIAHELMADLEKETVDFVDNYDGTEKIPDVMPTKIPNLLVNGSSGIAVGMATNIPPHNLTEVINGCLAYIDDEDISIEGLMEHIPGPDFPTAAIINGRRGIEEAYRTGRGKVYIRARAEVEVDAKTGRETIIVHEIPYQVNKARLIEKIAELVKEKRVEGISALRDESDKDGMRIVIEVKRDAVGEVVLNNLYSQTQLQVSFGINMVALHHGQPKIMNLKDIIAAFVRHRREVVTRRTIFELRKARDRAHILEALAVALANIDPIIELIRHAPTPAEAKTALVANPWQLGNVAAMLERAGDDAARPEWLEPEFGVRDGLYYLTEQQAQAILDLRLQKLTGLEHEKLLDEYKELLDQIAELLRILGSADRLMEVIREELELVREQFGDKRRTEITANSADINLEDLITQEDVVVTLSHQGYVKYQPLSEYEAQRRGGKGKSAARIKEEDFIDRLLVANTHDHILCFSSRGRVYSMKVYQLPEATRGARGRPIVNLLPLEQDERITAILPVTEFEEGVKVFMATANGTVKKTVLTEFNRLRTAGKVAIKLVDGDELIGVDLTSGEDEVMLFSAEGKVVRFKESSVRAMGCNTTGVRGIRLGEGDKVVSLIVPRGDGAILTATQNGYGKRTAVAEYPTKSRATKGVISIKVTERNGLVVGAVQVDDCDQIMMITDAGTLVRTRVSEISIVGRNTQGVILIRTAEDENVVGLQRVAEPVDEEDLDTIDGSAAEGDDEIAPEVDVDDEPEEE
The experiment in a line: Inhibition of DNA gyrase supercoiling of relaxed plasmid pBR322 (agarose gel electrophoresis). The test is classed as biochemical, E. coli. The note with it: qualitative statement. On the procedure: The reaction mixture (30 µl) contained 35 mM Tris-HCl (pH 7.5), 24 mM KCl, 4 mM MgCl 2 , 1.4 mM ATP, 5 mM DTT, 1.8 mM spermidine, and 0.1 mg/ml of a bovine serum albumin. A mixture of DNA gyrase A and B subunits (0.4 µg) and 0.25–0.5 µg of the substrate (relaxed plasmid pBR322) were added to the reaction probe. The reaction was performed for 60 min at 25°C (for multiple samples, 96-well plates were used). After the reaction was completed, the samples were extracted with an equal volume of chloroform (30 µl). Then, 7 µl of the mixture containing […], 25% of glycerol, and 0.25% of bromphenol blue were added to the aqueous phase. The mixture was applied on a 1.2% agarose gel in TAE buffer (40 mM Tris-acetate, pH 8.0, 2 mM EDTA) and analyzed with electrophoresis (50 V, 2 h). The products were visualized under UV-light after staining with ethidium bromide. The activity of the enzyme (%) was determined from the intensity of the band corresponding to the super-coiled form of plasmid pBR322 and estimated using the Total Lab v2.01 software.
An equal volume of DMSO was added to the control. The reaction was started upon addition of DNA gyrase (0.4 µg) and relaxed plasmid pBR322 (0.25–0.5 µg), which was used as a substrate, and performed as described above. Calculations were made using the Total Lab v2.01 program.
Turning to `CC1COc2c(ccc(F)c2F)N1` (racemic) [IOS-RS, (R,S)-7,8-Difluoro-3-methyl-2,3-dihydro-4H-benzo[b][1, 4]-oxazine], the “Inhibitory activity towards DNA gyrase, in words” value is “no significant activity”.

`CCOC(=O)c1cn2c3c(c(F)c(F)cc3c1=O)OC[C@@H]2C` [IOS-E, Ethyl ester of (3S)-(-)-9,10-difluoro-3-methyl-7-oxo-2,3-dihydro-7H-pyrido[1,2,3-d,e][1, 4]-benzoxazine-6-carboxylic acid]: the “Inhibitory activity towards DNA gyrase, in words” value was “no significant activity; also recorded: practically inactive”.

In the case of `C[C@H]1COc2c(F)c(F)cc3c(=O)c(C(=O)O)cn1c23` [IOS-K, (3S)-(-)-Difluoro-3-methyl-7-oxo-2,3-dihydro-7H-pyrido[1,2,3-d,e][1, 4]-benzoxazine-6-carboxylic acid], the “Inhibitory activity towards DNA gyrase, in words” value is reported as “significant inhibitory activity”. On to `CCn1cc(C(=O)O)c(=O)c2cc(F)c(N3CCNCC3)cc21` [IOS-NORFL_01, norfloxacin, reference compound], for which the “Inhibitory activity towards DNA gyrase, in words” value was “poor inhibitor”. Still for that read-out and setting: next, `C[C@H]1COc2c(ccc(F)c2F)N1` [IOS-S, (3S)-2,3-Dihydro-3-methyl-7,8-difluoro-1,4-benzoxazine]: “no significant activity”.

The test is the same for the next values; noted with them: relative to levofloxacin, in words.
`CN1C2=Nn3cc(C(=O)O)c(=O)c4c(F)c(F)c(N5CCCC5)c(c43)N2c2cc(F)c(F)cc21` [EV-465]: the “Activity towards DNA gyrase compared with that of levofloxacin” value is “two orders of magnitude”. `C[C@H]1COc2c(F)c(F)cc3c(=O)c(C(=O)O)cn1c23` [IOS-K, (3S)-(-)-Difluoro-3-methyl-7-oxo-2,3-dihydro-7H-pyrido[1,2,3-d,e][1, 4]-benzoxazine-6-carboxylic acid]: the “Activity towards DNA gyrase compared with that of levofloxacin” value is “lower by an order of magnitude”.

The same test, now with this note: relaxed pBR322, 60 min, 25°C.
`CCOC(=O)c1cn2c3c(c(F)c(F)cc3c1=O)OC(c1cccnc1)=N2` [EV-313-D]: the “I50 (inhibition activity towards DNA gyrase)” value is given as “EV-313-D Inactive”. In the case of `O=C(O)c1cn2c3c(c(N4CCCC4)c(F)cc3c1=O)OC(c1cccc([N+](=O)[O-])c1)=N2` [EV-452-D], the “I50 (inhibition activity towards DNA gyrase)” value is “EV-452-D Inactive”. Regarding `O=C(O)c1cn2c3c(c(N4CCOCC4)c(F)cc3c1=O)SC(NC1CCCCC1)=N2` [EV-572], the “I50 (inhibition activity towards DNA gyrase)” value is listed as “EV-572 Inactive”.

In the case of `O=C(O)c1cn2c3c(c(F)c(F)cc3c1=O)NC(c1ccccc1)=N2` [EV-591], the “I50 (inhibition activity towards DNA gyrase)” value was “EV-591 Inactive”.

Consider `O=C(C(=C1Nc2ccccc2N1)c1nc(=O)c2cc(F)c(F)c(F)c2s1)c1ccccc1` [EV-N51-B], for which the “I50 (inhibition activity towards DNA gyrase)” value was “EV-N51-B Inactive”. On to `O=c1nc(Nc2ncccn2)sc2c(F)c(F)c(F)cc12` [EV-N119-2], for which the “I50 (inhibition activity towards DNA gyrase)” value is on record as “EV-N119-2 Inactive”. In the case of `O=c1[nH]c(N/N=C/c2ccccc2O)nc2c(F)c(N3CCCC3)c(F)cc12` [EV-T143-B], the “I50 (inhibition activity towards DNA gyrase)” value is “EV-T143-B Inactive”. Take `Oc1ccccc1/C=N\Nc1nc(-c2ccccc2)nc2cccc(F)c12` [EV-T150-C]: the “I50 (inhibition activity towards DNA gyrase)” value is on record as “EV-T150-C Inactive”. Consider `O=c1c2cc(F)c(F)cc2nc(/C=C/c2ccccc2O)n1-c1ccccc1` [EV-T156], for which the “I50 (inhibition activity towards DNA gyrase)” value was “EV-T156 Inactive”. For `CCSc1nc(Nc2ccc(F)c(F)c2)c2cc(F)c(F)c(F)c2n1` [EV-X58-A], the “I50 (inhibition activity towards DNA gyrase)” value is “EV-X58-A Inactive”. Same read-out and setting: in the case of `CC(C)(C)c1cc(-n2c(-c3ccccc3)nc3cc(F)c(F)cc3c2=O)no1` [EV-X149] it was “EV-X149 Inactive”.

The same test, now with this note: relaxed pBR322, 60 min, 25°C; read-out: I50 (inhibition activity towards DNA gyrase).
For `CN1C2=Nn3cc(C(=O)O)c(=O)c4c(F)c(F)c(N5CCCC5)c(c43)N2c2cc(F)c(F)cc21` [EV-465], the IC50 was over 63.4 µM.

These data come from publication PMC3347614 (Acta Naturae, 2011).
